Laboratory results as given in the supplement of paper PMC10307832.

Legend:
Assay in all cases: relative viability (nuclei count vs DMSO), 5 days (fraction); higher = more cells survive
[1] = compound: CC1=CC(=CC=C1)NC2=NC(=CS2)C3=CC=NC=C3 + COc1cccc2cc(-c3nc([C@H]4CC[C@H](C(=O)O)CC4)n4ncnc(N)c34)[nH]c12 [OSI-027] (partner 0.5 µM)
Outline: (§1)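 Relative viability equals treated-well nuclei counts divided by vehicle-well nuclei counts. Counts came from 4× images of lung cancer cell lines grown in 1536-well plates for 5 days after pin-tool dosing on the day after seeding. Dosing used one drug alone or a fixed anchor-drug dose plus five library-drug doses (not always all listed) in √10 steps, and values are medians of duplicate plates.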

Masitinib + Lapatinib = compound: Cc1ccc(NC(=O)c2ccc(CN3CCN(C)CC3)cc2)cc1Nc1nc(-c2cccnc2)cs1 [Masitinib] + CS(=O)(=O)CCNCc1ccc(-c2ccc3ncnc(Nc4ccc(OCc5cccc(F)c5)c(Cl)c4)c3c2)o1 [Lapatinib] (partner 2 µM)
Outline: as §1

Masitinib + AZD7762 = compound: Cc1ccc(NC(=O)c2ccc(CN3CCN(C)CC3)cc2)cc1Nc1nc(-c2cccnc2)cs1 [Masitinib] + NC(=O)Nc1cc(-c2cccc(F)c2)sc1C(=O)N[C@H]1CCCNC1 [AZD7762] (partner 0.2 µM)
Outline: as §1

Masitinib + Luminespib = compound: Cc1ccc(NC(=O)c2ccc(CN3CCN(C)CC3)cc2)cc1Nc1nc(-c2cccnc2)cs1 [Masitinib] + CCNC(=O)c1noc(-c2cc(C(C)C)c(O)cc2O)c1-c1ccc(CN2CCOCC2)cc1 [Luminespib] (partner 0.01 µM)
Outline: as §1

| Cell Line | relative viability ([1]; first compound 0.08 µM) | relative viability ([1]; first compound 0.253 µM) | relative viability ([1]; first compound 0.8 µM) | relative viability ([1]; first compound 2.53 µM) | relative viability ([1]; first compound 8 µM) | relative viability (Masitinib + Lapatinib; first compound 0.01 µM) | relative viability (Masitinib + Lapatinib; first compound 0.03162 µM) | relative viability (Masitinib + Lapatinib; first compound 0.1 µM) | relative viability (Masitinib + Lapatinib; first compound 0.3162 µM) | relative viability (Masitinib + Lapatinib; first compound 1 µM) | relative viability (Masitinib + AZD7762; first compound 0.03162 µM) | relative viability (Masitinib + AZD7762; first compound 0.1 µM) | relative viability (Masitinib + AZD7762; first compound 0.3162 µM) | relative viability (Masitinib + AZD7762; first compound 1 µM) | relative viability (Masitinib + Luminespib; first compound 0.01 µM) | relative viability (Masitinib + Luminespib; first compound 0.03162 µM) | relative viability (Masitinib + Luminespib; first compound 0.1 µM) | relative viability (Masitinib + Luminespib; first compound 0.3162 µM) | relative viability (Masitinib + Luminespib; first compound 1 µM) | relative viability (Masitinib + AZD7762; first compound 0.01 µM) |
| --- | --- | --- | --- | --- | --- | --- | --- | --- | --- | --- | --- | --- | --- | --- | --- | --- | --- | --- | --- | --- |
| HCC-366 | 0.723 | 0.744 | 0.959 | 0.833 | 0.461 | 0.731 | 1.1 | 0.785 | 0.945 | 1.13 | 0.226 | 0.256 | 0.203 | 0.188 | – | – | – | – | – | – |
| HCC-827 | 0.702 | 0.755 | 0.693 | 0.809 | 0.732 | 0.198 | 0.189 | 0.19 | 0.168 | 0.201 | 0.198 | 0.192 | 0.165 | 0.213 | 0.597 | 0.906 | 0.816 | 0.558 | 0.583 | 0.224 |
| HOP-62 | 0.714 | 0.774 | 0.849 | 0.786 | 0.729 | 0.814 | 1.11 | 0.854 | 1.31 | 0.937 | 0.631 | 0.837 | 0.679 | 0.655 | 0.75 | 0.839 | 0.949 | 0.968 | 0.855 | 0.458 |
| IA-LM | – | – | – | – | – | – | – | 0.891 | 0.928 | 1.07 | – | – | – | – | – | – | – | – | – | – |
| LCLC-103H | 0.389 | 0.448 | 0.422 | 0.462 | 0.342 | – | – | – | – | – | 0.885 | 0.566 | 0.831 | 0.791 | 0.727 | 0.932 | 1.04 | 0.748 | 1.03 | – |
| NCI-H441 | 0.492 | 0.499 | 0.605 | 0.61 | 0.672 | – | – | – | – | – | 1.2 | 1.28 | 1.35 | 1.28 | 0.288 | 0.402 | 0.349 | 0.407 | 0.318 | 1.23 |
| NCI-H520 | 0.259 | 0.252 | 0.302 | 0.193 | 0.251 | 0.949 | – | 0.944 | 0.82 | 0.917 | – | – | – | – | 0.223 | 0.24 | 0.24 | 0.217 | 0.2 | – |
| NCI-H522 | 0.71 | 0.649 | 0.737 | 0.735 | 0.775 | – | – | – | – | – | 0.874 | 0.894 | 0.643 | 0.795 | 1.18 | 1.16 | 1.05 | 1.13 | 0.94 | 0.892 |
| NCI-H661 | 0.621 | 0.653 | 0.687 | 0.7 | 0.578 | 0.52 | 0.229 | 0.566 | 0.492 | 0.41 | – | – | – | – | 0.831 | 0.916 | 0.951 | 0.897 | 0.903 | – |
| NCI-H1299 | – | – | – | – | – | 0.922 | 0.961 | 0.991 | 0.976 | 0.945 | – | – | – | – | – | – | – | – | – | – |
| NCI-H1563 | 0.723 | 0.775 | 0.842 | 0.779 | 0.697 | 0.945 | 0.941 | 0.969 | 0.945 | 0.732 | – | – | – | – | 0.509 | 0.537 | 0.524 | 0.532 | 0.505 | – |
| NCI-H1648 | 0.259 | 0.277 | 0.276 | 0.258 | 0.255 | – | – | – | – | – | 0.678 | 0.711 | – | 0.679 | – | – | – | – | – | 0.567 |
| NCI-H1650 | 0.619 | 0.508 | 0.625 | 0.472 | 0.227 | 0.607 | 0.761 | 0.746 | 0.774 | 0.612 | – | – | – | – | 0.195 | 0.227 | 0.221 | 0.191 | 0.206 | – |
| NCI-H1703 | – | – | – | – | – | 0.764 | 0.857 | 0.436 | 0.479 | 0.256 | 0.158 | 0.102 | 0.121 | 0.106 | – | – | – | – | – | 0.113 |
| NCI-H2009 | 0.589 | 0.668 | 0.676 | 0.625 | 0.586 | 0.567 | 0.984 | 0.719 | 0.834 | 0.9 | – | – | – | – | 0.969 | 0.938 | 1.03 | 1 | 1.06 | – |
| NCI-H2023 | 0.337 | 0.269 | 0.376 | 0.228 | 0.207 | 0.628 | 0.823 | 0.73 | 0.559 | 0.776 | – | – | – | – | 0.61 | 0.664 | 0.786 | 0.69 | 0.753 | – |
| NCI-H2228 | 0.375 | 0.463 | 0.517 | 0.472 | 0.398 | 0.972 | 1.32 | 1.14 | 1.38 | 1.06 | – | – | – | – | 0.172 | 0.189 | 0.16 | 0.148 | 0.15 | – |
| NCI-H2342 | 0.623 | 0.588 | 0.65 | 0.5 | 0.607 | – | – | – | – | – | 0.402 | 0.427 | 0.508 | 0.456 | 0.775 | 0.79 | 0.707 | 0.727 | 0.791 | 0.51 |
| SK-LU-1 | 0.32 | 0.374 | – | 0.348 | 0.273 | 0.928 | 0.853 | 1.04 | 0.986 | 0.779 | – | – | – | – | 0.208 | 0.195 | 0.2 | 0.221 | 0.193 | – |
| SK-MES-1 | 0.517 | 0.484 | 0.549 | 0.714 | 0.511 | 0.473 | 0.426 | 0.518 | 0.386 | 0.45 | – | – | – | – | 0.544 | 0.776 | 0.992 | 0.707 | 0.686 | – |
| SW 900 | 0.443 | 0.539 | 0.549 | 0.356 | 0.355 | – | – | – | – | – | 0.548 | 0.568 | 0.574 | 0.576 | 0.165 | 0.156 | 0.163 | 0.158 | 0.185 | 0.664 |
| SW 1573 | 0.569 | 0.593 | 0.723 | 0.561 | 0.536 | 0.986 | 1.17 | 1.2 | 0.73 | 0.987 | – | – | – | – | 0.172 | 0.231 | 0.214 | 0.261 | 0.302 | – |
| UMC-11 | 0.448 | 0.512 | 0.469 | 0.461 | 0.443 | 0.82 | 0.914 | 0.979 | 1.06 | 1.05 | – | – | – | – | – | 1.08 | 1.13 | 1.17 | 1.12 | – |
